Measurements taken from PubChem BioAssay AID1259407 (Chemical Carcinogenesis Research Information System (CCRIS), 2018).
Activity calls are given as the source filed them. The rule behind the calls is not given here.

Test system: CCRIS mutagenicity, Ames/micronucleus/aberration tests
Assay: CCRIS mutagenicity studies
[1] = Test System: AMES SALMONELLA TYPHIMURIUM, Strain/Indicator: TA97, Metabolic Activation: HAMSTER, LIVER, S-9, AROCLOR 1254 (10%), Method: PREINCUBATION
[2] = Test System: AMES SALMONELLA TYPHIMURIUM, Strain/Indicator: TA97, Metabolic Activation: NONE, Method: PREINCUBATION
[3] = Test System: AMES SALMONELLA TYPHIMURIUM, Strain/Indicator: TA97, Metabolic Activation: RAT, LIVER, S-9, AROCLOR 1254 (10%), Method: PREINCUBATION
[4] = Test System: AMES SALMONELLA TYPHIMURIUM, Strain/Indicator: TA98, Metabolic Activation: HAMSTER, LIVER, S-9, AROCLOR 1254 (10%), Method: PREINCUBATION
[5] = Test System: AMES SALMONELLA TYPHIMURIUM, Strain/Indicator: TA98, Metabolic Activation: HAMSTER, LIVER, S-9, AROCLOR 1254 (30%), Method: PREINCUBATION
[6] = Test System: AMES SALMONELLA TYPHIMURIUM, Strain/Indicator: TA98, Metabolic Activation: NONE, Method: PREINCUBATION
[7] = Test System: AMES SALMONELLA TYPHIMURIUM, Strain/Indicator: TA98, Metabolic Activation: NONE, Method: STANDARD PLATE
[8] = Test System: AMES SALMONELLA TYPHIMURIUM, Strain/Indicator: TA98, Metabolic Activation: RAT, LIVER, S-9, AROCLOR 1254 (10%), Method: PREINCUBATION
[9] = Test System: AMES SALMONELLA TYPHIMURIUM, Strain/Indicator: TA98, Metabolic Activation: RAT, LIVER, S-9, AROCLOR 1254 (30%), Method: PREINCUBATION
[10] = Test System: AMES SALMONELLA TYPHIMURIUM, Strain/Indicator: TA98, Metabolic Activation: RAT, LIVER, S-9, AROCLOR 1254, Method: STANDARD PLATE
[11] = Test System: AMES SALMONELLA TYPHIMURIUM, Strain/Indicator: TA100, Metabolic Activation: HAMSTER, LIVER, S-9, AROCLOR 1254 (10%), Method: PREINCUBATION
[12] = Test System: AMES SALMONELLA TYPHIMURIUM, Strain/Indicator: TA100, Metabolic Activation: HAMSTER, LIVER, S-9, AROCLOR 1254 (30%), Method: PREINCUBATION
[13] = Test System: AMES SALMONELLA TYPHIMURIUM, Strain/Indicator: TA100, Metabolic Activation: NONE, Method: PREINCUBATION
[14] = Test System: AMES SALMONELLA TYPHIMURIUM, Strain/Indicator: TA100, Metabolic Activation: NONE, Method: STANDARD PLATE
[15] = Test System: AMES SALMONELLA TYPHIMURIUM, Strain/Indicator: TA100, Metabolic Activation: RAT, LIVER, S-9, AROCLOR 1254 (10%), Method: PREINCUBATION
[16] = Test System: AMES SALMONELLA TYPHIMURIUM, Strain/Indicator: TA100, Metabolic Activation: RAT, LIVER, S-9, AROCLOR 1254 (30%), Method: PREINCUBATION
[17] = Test System: AMES SALMONELLA TYPHIMURIUM, Strain/Indicator: TA100, Metabolic Activation: RAT, LIVER, S-9, AROCLOR 1254, Method: STANDARD PLATE
[18] = Test System: AMES SALMONELLA TYPHIMURIUM, Strain/Indicator: TA1535, Metabolic Activation: HAMSTER, LIVER, S-9, AROCLOR 1254 (10%), Method: PREINCUBATION
[19] = Test System: AMES SALMONELLA TYPHIMURIUM, Strain/Indicator: TA1535, Metabolic Activation: NONE, Method: STANDARD PLATE
[20] = Test System: AMES SALMONELLA TYPHIMURIUM, Strain/Indicator: TA1535, Metabolic Activation: RAT, LIVER, S-9, AROCLOR 1254 (10%), Method: PREINCUBATION
[21] = Test System: AMES SALMONELLA TYPHIMURIUM, Strain/Indicator: TA1535, Metabolic Activation: RAT, LIVER, S-9, AROCLOR 1254, Method: STANDARD PLATE
[22] = Test System: AMES SALMONELLA TYPHIMURIUM, Strain/Indicator: TA1538, Metabolic Activation: NONE, Method: STANDARD PLATE
[23] = Test System: AMES SALMONELLA TYPHIMURIUM, Strain/Indicator: TA1538, Metabolic Activation: RAT, LIVER, S-9, AROCLOR 1254, Method: STANDARD PLATE

| Compound | mutagenic call [1] | mutagenic call [2] | mutagenic call [3] | mutagenic call [4] | mutagenic call [5] | mutagenic call [6] | mutagenic call [7] | mutagenic call [8] | mutagenic call [9] | mutagenic call [10] | mutagenic call [11] | mutagenic call [12] | mutagenic call [13] | mutagenic call [14] | mutagenic call [15] | mutagenic call [16] | mutagenic call [17] | mutagenic call [18] | mutagenic call [19] | mutagenic call [20] | further results |
| --- | --- | --- | --- | --- | --- | --- | --- | --- | --- | --- | --- | --- | --- | --- | --- | --- | --- | --- | --- | --- | --- |
| COc1cc([N+](=O)[O-])ccc1N=NC(C(C)=O)C(=O)Nc1ccccc1OC (stereo not drawn) | inactive; negative | inactive; negative | inactive; negative | inactive; negative | inactive; negative | inactive; negative | inactive; negative | inactive; negative | inactive; negative | inactive; negative | inactive; negative | inactive; negative | inactive; negative | inactive; negative | inactive; negative | inactive; negative | inactive; negative | inactive; negative | inactive; negative | inactive; negative | mutagenic call (Test System: AMES SALMONELLA TYPHIMURIUM, Strain/Indicator: TA97, Metabolic Activation: HAMSTER, LIVER, S-9, AROCLOR 1254 (30%), Method: PREINCUBATION): inactive; negative; mutagenic call (Test System: AMES SALMONELLA TYPHIMURIUM, Strain/Indicator: TA97, Metabolic Activation: RAT, LIVER, S-9, AROCLOR 1254 (30%), Method: PREINCUBATION): inactive; negative; mutagenic call (Test System: AMES SALMONELLA TYPHIMURIUM, Strain/Indicator: TA98, Metabolic Activation: HAMSTER, LIVER, S-9, AROCLOR 1254, Method: STANDARD PLATE): inactive; negative; mutagenic call (Test System: AMES SALMONELLA TYPHIMURIUM, Strain/Indicator: TA100, Metabolic Activation: HAMSTER, LIVER, S-9, AROCLOR 1254, Method: STANDARD PLATE): inactive; negative; mutagenic call (Test System: AMES SALMONELLA TYPHIMURIUM, Strain/Indicator: TA1535, Metabolic Activation: HAMSTER, LIVER, S-9, AROCLOR 1254 (30%), Method: PREINCUBATION): inactive; negative; mutagenic call (Test System: AMES SALMONELLA TYPHIMURIUM, Strain/Indicator: TA1535, Metabolic Activation: HAMSTER, LIVER, S-9, AROCLOR 1254, Method: STANDARD PLATE): inactive; negative; mutagenic call (Test System: AMES SALMONELLA TYPHIMURIUM, Strain/Indicator: TA1535, Metabolic Activation: RAT, LIVER, S-9, AROCLOR 1254 (30%), Method: PREINCUBATION): inactive; negative; mutagenic call [21]: inactive; negative; mutagenic call (Test System: AMES SALMONELLA TYPHIMURIUM, Strain/Indicator: TA1537, Metabolic Activation: HAMSTER, LIVER, S-9, AROCLOR 1254, Method: STANDARD PLATE): inactive; negative; mutagenic call (Test System: AMES SALMONELLA TYPHIMURIUM, Strain/Indicator: TA1537, Metabolic Activation: NONE, Method: STANDARD PLATE): inactive; negative; mutagenic call (Test System: AMES SALMONELLA TYPHIMURIUM, Strain/Indicator: TA1537, Metabolic Activation: RAT, LIVER, S-9, AROCLOR 1254, Method: STANDARD PLATE): inactive; negative; mutagenic call (Test System: AMES SALMONELLA TYPHIMURIUM, Strain/Indicator: TA1538, Metabolic Activation: HAMSTER, LIVER, S-9, AROCLOR 1254, Method: STANDARD PLATE): inactive; negative; mutagenic call [22]: inactive; negative; mutagenic call [23]: inactive; negative; mutagenic call (Test System: MOUSE LYMPHOMA, Strain/Indicator: L5178Y (TK+/TK-), Metabolic Activation: NONE, Method: SUSPENSION/PLATE): inactive; negative. reevaluation of results: negative; mutagenic call (Test System: MOUSE LYMPHOMA, Strain/Indicator: L5178Y (TK+/TK-), Metabolic Activation: RAT, LIVER, S-9, AROCLOR 1254, Method: SUSPENSION/PLATE): inactive; negative. reevaluation of results: negative |
| O=c1cc(-c2ccc(O)cc2)oc2cc(O)cc(O)c12 |  |  |  |  |  |  | inactive; negative |  |  | inactive; negative |  |  |  | inactive; negative |  |  | inactive; negative |  | inactive; negative |  | mutagenic call (Test System: AMES SALMONELLA TYPHIMURIUM, Strain/Indicator: TA97, Metabolic Activation: NONE, Method: STANDARD PLATE): inactive; negative; mutagenic call (Test System: AMES SALMONELLA TYPHIMURIUM, Strain/Indicator: TA97, Metabolic Activation: RAT, LIVER, S-9, AROCLOR 1254, Method: STANDARD PLATE): inactive; negative; mutagenic call (Test System: AMES SALMONELLA TYPHIMURIUM, Strain/Indicator: TA102, Metabolic Activation: NONE, Method: STANDARD PLATE): inactive; negative; mutagenic call (Test System: AMES SALMONELLA TYPHIMURIUM, Strain/Indicator: TA102, Metabolic Activation: RAT, LIVER, S-9, AROCLOR 1254, Method: STANDARD PLATE): inactive; negative; mutagenic call [21]: inactive; negative; mutagenic call [22]: inactive; negative; mutagenic call [23]: inactive; negative; mutagenic call (Test System: Mouse lymphoma, Strain/Indicator: L5178Y (tk+/tk-), Metabolic Activation: None, Method: Suspension/plate): active; positive; mutagenic call (Test System: Mouse lymphoma, Strain/Indicator: L5178Y (tk+/tk-), Metabolic Activation: Rat, Liver, S-9, Aroclor 1254, Method: Suspension/plate): active; positive |
| NC(=O)Nc1nc2ccccc2[nH]1 |  |  |  |  | active; positive | active; positive |  |  | active; positive |  |  | inactive; negative | inactive; negative |  |  | inactive; negative |  |  |  |  |  |
| O=c1c2ccc3c4c(ccc(c24)c2nc4ccccc4n12)c(=O)n1c2ccccc2nc31 | inactive; negative | active; positive | inactive; negative | active; positive |  | active; positive |  | inactive; negative |  |  | inactive; negative |  | inactive; negative |  | inactive; negative |  |  | inactive; negative |  | inactive; negative | mutagenic call (Test System: AMES SALMONELLA TYPHIMURIUM, Strain/Indicator: TA1535, Metabolic Activation: NONE, Method: PREINCUBATION): inactive; negative |
